Reference: US10093675B2, “6,8-disubstituted-9-(heterocyclyl)purines, compositions containing these derivatives and their use in cosmetic and medicinal applications” (USTAV EXPERIMENTALNI BOTANIKY AV CR, V.V.I., priority 2014, dated 2018)

Columns and labels:
[1] = system: human diploid fibroblasts (HDF cells; HDF25, HDF45, HDF80); experiment: Inhibition of human cell aging: senescent cells by beta-galactosidase staining; assay type: cell-based
Procedure, shortened: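 Cells of passages 25, 45 and 80 fixed 5 min at room temperature in 2% formaldehyde/0.2% glutaraldehyde in PBS, then incubated at 37° C with beta-galactosidase substrate. Senescent cells identified by blue staining.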

C. elegans fem-1(hc17) = experiment: Lifespan of C. elegans; assay type: in vivo; details: 100 microM, treated from 4th day of adulthood; DMSO vehiculum 12.98
Description: C. elegans is a standard model of aging. Its relevance for human aging is generally accepted based primarily on molecular similarity in aging mechanisms and evolutionary conservation of several pathways related to health- and life-span including insulin/IGF-I signaling. (Olsen et. al 2006, doi: 10.1196/annals.1354.015) It is used for drug screening campaigns (reviewed e.g. in Kaletta et al. 2006, doi: 10.1038/nrd2031) including those searching for compounds with cytoprotective activity. Compounds with a life-span extending effect in C. elegans and known health benefits in human include resveratrol, ECG and curcumin (Liao et, al 2011, doi: 10.1016/j.mad.2011.07.008; Wood et al. 2004, doi: 10.1038/nature02789; Abbas et al. 2009, doi: 10.1055/s-0028-1088378). The strain used in this experiment was fem-1(hc17). When grown at 25° C. all animals develop into females which prevents further reproduction and contamination of experiment with progeny. Age-synchronized adults (obtained by sodium hypochlorite treatment) were maintained in liquid S-complete medium. […] Living worms (i.e those moving when exposed to intensive light) were counted in a microscope every 2-3 days until the worms reached 22nd day of adulthood. The effects of the compounds on worm life-span were evaluated in software OASIS (Yang et al 2011, doi: 10.1371/journal.pone.002352).

[2] = system: detached leaves of Triticum aestivum cv. Hereward; experiment: Membrane lipid peroxidation (MDA, TBA method) in detached wheat leaves during dark senescence; assay type: in vivo; details: four days in the dark, Control 18.9 (±2.2)
Procedure, shortened: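 Leaf tips from 7-day wheat seedlings were kept with compound or kinetin for four days in the dark. 100 mg tissue was extracted in 80% methanol and heated 30 min at 95 °C with 0.5% TBA/0.1% TCA. MDA came from A532 minus A600, using 155 mM^−1cm^−1.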

[3] = Radical scavenging activity determined by ORAC (Oxygen Radical Absorbance Capacity); assay type: biochemical; details: Mean ± SD (n = 3); net area under the curve relative to trolox, equimolar basis
Description: The ability of compounds to scavenge free radicals in vitro was determined by Oxygen Radical Absorbance Capacity (ORAC) method. Fluorescein (100 μL, […]) and 25 μL of compound solution were added into each working well in a 96-well microplate preincubated at 37° C. Thereafter, 25 μL of 250 mM AAPH was quickly added, microplate was shaken for 5 s and the fluorescence (Ex. 485 nm, Em. 510 nm) was read every 3 min over 90 min by using microplate reader Infinite 200 (TECAN, Switzerland). The net area under the curve was used to express antioxidant activity relative to trolox which was used as a standard.

SMILES | SENESCENT CELLS (%) HDF25 ([1]; human diploid fibroblasts passage 25, beta-galactosidase staining) [%] | SENESCENT CELLS (%) HDF45 ([1]; human diploid fibroblasts passage 45, beta-galactosidase staining) [%] | SENESCENT CELLS (%) HDF80 ([1]; human diploid fibroblasts passage 80, beta-galactosidase staining) [%] | restricted mean of life-span (C. elegans fem-1(hc17)) | MDA (nmol/g FW) [2] | ORAC (compound/trolox ratio) [3]
c1ccc(CNc2ncnc3nc[nH]c23)cc1 [6-benzylaminopurine, reference compound] | 5 | 9 | 45 | 12.95 | – | –
CC(C)=CCNc1ncnc2c1nc(NCCN)n2C1CCCCO1 (stereo not shown) [Compound 172, 8-(2-Aminoethylamino)-6-(3-methylbut-2-en-1-ylamino)-9-(tetrahydropyran-2-yl)-9H-purine] | – | – | – | – | 10.8 (±0.9) nmol/g FW | 28.3 ± 1.6
OCCNc1nc2c(NCc3ccco3)ncnc2n1C1CCCCO1 (stereo not shown) [Compound 181, 6-Furfurylamino-8-(2-hydroxyethylamino)-9-(tetrahydropyran-2-yl)-9H-purine] | – | – | – | – | 9.5 (±0.5) nmol/g FW | 78.1 ± 3.9
OCCCNc1nc2c(NCc3ccco3)ncnc2n1C1CCCCO1 (stereo not shown) [Compound 185, 6-Furfurylamino-8-(3-hydroxypropylamino)-9-(tetrahydropyran-2-yl)-9H-purine] | – | – | – | – | 10.2 (±1.1) nmol/g FW | 48.3 ± 2.3
